Laboratory results reported in patent US20090263744A1, “ETHYLENICALLY UNSATURATED COMPOUND, LIGHT SENSITIVE COMPOSITION, LIGHT SENSITIVE PLANOGRAPHIC PRINTING PLATE MATERIAL AND PRINTING PROCESS EMPLOYING THE SAME” (priority 2005, published 2009).

Legend:
[1] = Solubility of polymerizable monomer in 25° C. pure water (visual, no precipitations or oily separated components); format: physicochemical
Experimental: (§1) Herein, “dissolve” implies that no precipitations or oily separated components are visually observed under the following experimental conditions. Solubility in a 25° C. KOH aqueous solution having a pH of 12.5 or 25° C. pure water is represented by a value obtained by the following measuring method.
(§2) An ethylenically unsaturated compound is added to 20 ml of the solution or pure water described above at 25° C. in a 100 ml conical flask, stirred with a stirrer having a 1 cm long stirrer piece at a rate of 300 rpm for one hour, then allowed to stand for five minutes.
(§3) Solubility of polymerizable monomer to water or an alkali solution was measured according to the procedure described above.

[2] = Solubility of polymerizable monomer in alkali solution (25° C. KOH aqueous solution having a pH of 12.5); format: physicochemical; settings: Table 3, pH 12.5
Experimental: as §1, §2, §3

**Q.** What does the source list for C=CC(=O)OCC(CO)(COC(=O)C=C)COC(=O)C=C [PETA, Pentaerythritol triacrylate]?
**A.** Solubility of polymerizable monomer weight % (water) ([1]; Table 2, water, 25° C.): 0.1 weight %; Solubility of polymerizable monomer, Pure water ([1]; Table 3, 25° C. pure water): 0.1 % by weight; Solubility of polymerizable monomer, Alkali solution [2]: 0.1 % by weight
